From PubChem BioAssay (NCI)
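Compound exposure: 48 hours, 5 concentrations, 96-well plates. GI50 = concentration required for 50% inhibition of growth. At the TGI there is no net growth.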

Legend:
Test in all cases: inhibition of tumour cell growth, NCI panel, 48 h
SNB-75 CNS = system: SNB-75 CNS
CCRF-CEM leukemia = system: CCRF-CEM leukemia
A498 renal = system: A498 renal
MDA-MB-435 = system: MDA-MB-435
K-562 leukemia = system: K-562 leukemia
KM12 colon = system: KM12 colon
IGROV1 ovarian = system: IGROV1 ovarian
M14 melanoma = system: M14 melanoma
786-0 renal = system: 786-0 renal
RXF 393 renal = system: RXF 393 renal

COc1cc(/C=C/C(=O)c2c(C)nc3ccccc3c2C)ccc1OCCCOc1cc2c(cc1OC)C(=O)N1CCC[C@H]1C=N2
GI50 (SNB-75 CNS): 0.0226 µM | TGI (SNB-75 CNS): 0.114 µM | TGI (CCRF-CEM leukemia): 0.0215 µM | GI50 (A498 renal): 0.0194 µM | TGI (A498 renal): 0.0419 µM | GI50 (MDA-MB-435): 0.0197 µM | TGI (MDA-MB-435): 0.04 µM | GI50 (K-562 leukemia): 0.011 µM | TGI (K-562 leukemia): 0.0346 µM

CCN1CCN(c2nc3ccc([N+](=O)[O-])cc3nc2C(=O)c2ccccc2)CC1
TGI (KM12 colon): 31.8 µM | TGI (CCRF-CEM leukemia): 8.27 µM | TGI (IGROV1 ovarian): 18.9 µM | TGI (A498 renal): 73.2 µM | TGI (M14 melanoma): 25.7 µM | TGI (786-0 renal): 34.2 µM | TGI (MDA-MB-435): 30.2 µM | TGI (RXF 393 renal): 32.8 µM | TGI (K-562 leukemia): > 100 µM

CCOC(=O)C(Cl)(NC(=O)c1c(F)c(F)c(F)c(F)c1F)C(F)(F)F (centres undefined)
TGI (SNB-75 CNS): > 100 µM | TGI (KM12 colon): > 100 µM | TGI (CCRF-CEM leukemia): > 100 µM | TGI (IGROV1 ovarian): > 100 µM | TGI (M14 melanoma): > 100 µM | TGI (786-0 renal): > 100 µM | TGI (MDA-MB-435): > 100 µM | TGI (RXF 393 renal): > 100 µM | TGI (K-562 leukemia): > 100 µM

CN(C)c1ccccc1CN1CCCN(Cc2ccccc2N(C)C)C1c1ccncc1
TGI (SNB-75 CNS): 32.1 µM | TGI (KM12 colon): 41.7 µM | TGI (IGROV1 ovarian): 28.1 µM | TGI (A498 renal): 24.8 µM | TGI (M14 melanoma): 8.62 µM | TGI (786-0 renal): 32.2 µM | TGI (MDA-MB-435): 20.2 µM | TGI (RXF 393 renal): 22.4 µM | TGI (K-562 leukemia): 23.9 µM

COC(=O)C1=C(O)C(C(=O)OC)[C@]2(O)[C@H](C(=O)OC)[C@H]1C[C@@H](c1c(Cl)cccc1Cl)[C@H]2C(=O)OC (some centres undefined)
TGI (SNB-75 CNS): 8.7 µM | TGI (KM12 colon): 8.6 µM | TGI (IGROV1 ovarian): 5.99 µM | TGI (A498 renal): 4.15 µM | TGI (M14 melanoma): 2.88 µM | TGI (786-0 renal): 3.48 µM | TGI (MDA-MB-435): 3.3 µM | TGI (RXF 393 renal): 3.92 µM | TGI (K-562 leukemia): 6.92 µM

CCCCCCCCCCCCCC[n+]1ccc2c(C)c3c(c(C)c2c1)c1cc(O)ccc1n3CC
GI50 (SNB-75 CNS): 0.213 µM | TGI (SNB-75 CNS): 1.05 µM | GI50 (IGROV1 ovarian): 0.496 µM | TGI (IGROV1 ovarian): 2.06 µM | GI50 (A498 renal): 0.327 µM | TGI (A498 renal): 1.27 µM | GI50 (MDA-MB-435): 0.314 µM | TGI (MDA-MB-435): 1.03 µM

COC(=O)C1CCC(=O)N1C(c1ccc(OC)cc1)c1ccc(OC)cc1 (centres undefined)
TGI (SNB-75 CNS): > 100 µM | TGI (KM12 colon): > 100 µM | TGI (CCRF-CEM leukemia): > 100 µM | TGI (IGROV1 ovarian): > 100 µM | TGI (A498 renal): > 100 µM | TGI (M14 melanoma): > 100 µM | TGI (786-0 renal): > 100 µM | TGI (MDA-MB-435): > 100 µM | TGI (K-562 leukemia): > 100 µM

CCOC(=O)C1OC(C2(C)OC3(OC4(C=CC3O)OC(C(C)C(=O)C(C)C(O)C(C)CC(C)c3c(Cl)cc(C)c(O)c3C(=O)O)C(C)CC4C)C(C)C2OC)CC1O (centres undefined)
TGI (SNB-75 CNS): 0.919 µM | TGI (KM12 colon): 6.41 µM | TGI (CCRF-CEM leukemia): 1.04 µM | TGI (IGROV1 ovarian): 16.5 µM | TGI (A498 renal): 2.51 µM | TGI (M14 melanoma): 6.38 µM | TGI (786-0 renal): 4.47 µM | TGI (MDA-MB-435): 1.22 µM | TGI (K-562 leukemia): 5.16 µM

CN1CCC(CN2c3ccccc3Sc3ccccc32)CC1
TGI (KM12 colon): 29.6 µM | TGI (CCRF-CEM leukemia): 35.9 µM | TGI (IGROV1 ovarian): 30.4 µM | TGI (A498 renal): 29 µM | TGI (M14 melanoma): 26 µM | TGI (786-0 renal): 27.3 µM | TGI (RXF 393 renal): 15.1 µM | TGI (K-562 leukemia): 32.3 µM

Cc1ccc(O)c(-c2cc(-c3cccc(Cl)c3)c(C#N)c(N)n2)c1
TGI (KM12 colon): 64.2 µM | TGI (CCRF-CEM leukemia): 55.2 µM | TGI (IGROV1 ovarian): 24.6 µM | TGI (M14 melanoma): 46.1 µM | TGI (786-0 renal): 46 µM | TGI (MDA-MB-435): 34.3 µM | TGI (RXF 393 renal): 47.8 µM | TGI (K-562 leukemia): 48.4 µM

c1ccc2c(c1)ncn2C1CCCCO1 (centres undefined)
TGI (SNB-75 CNS): > 100 µM | TGI (KM12 colon): > 100 µM | TGI (CCRF-CEM leukemia): > 100 µM | TGI (IGROV1 ovarian): > 100 µM | TGI (M14 melanoma): > 100 µM | TGI (786-0 renal): > 100 µM | TGI (MDA-MB-435): > 100 µM | TGI (RXF 393 renal): > 100 µM | TGI (K-562 leukemia): > 100 µM

COc1cc(C2C(C(=O)O)=C(COC(C)=O)Oc3cc4c(cc32)OCO4)cc(OC)c1OC (centres undefined)
TGI (SNB-75 CNS): > 100 µM | TGI (CCRF-CEM leukemia): > 100 µM | TGI (IGROV1 ovarian): > 100 µM | TGI (M14 melanoma): > 100 µM | TGI (RXF 393 renal): > 100 µM | TGI (K-562 leukemia): > 100 µM

O=C(Cc1nccc2c1[nH]c1ccccc12)OC1C#CCSCC#C/C=C\1 (centres undefined)
TGI (KM12 colon): > 100 µM | TGI (CCRF-CEM leukemia): > 100 µM | TGI (IGROV1 ovarian): > 100 µM | TGI (A498 renal): > 100 µM | TGI (M14 melanoma): > 100 µM | TGI (786-0 renal): > 100 µM | TGI (MDA-MB-435): > 100 µM | TGI (RXF 393 renal): > 100 µM | TGI (K-562 leukemia): > 100 µM

N#Cc1c(N)sc2c1-c1ccccc1OC2
TGI (KM12 colon): > 100 µM | TGI (CCRF-CEM leukemia): 36 µM | TGI (IGROV1 ovarian): > 100 µM | TGI (A498 renal): > 100 µM | TGI (M14 melanoma): > 100 µM | TGI (MDA-MB-435): > 100 µM | TGI (RXF 393 renal): 41.3 µM | TGI (K-562 leukemia): > 100 µM

CCOc1ccc(/C=N/[N+](C)(C)C)cc1OCC
TGI (SNB-75 CNS): > 10 µM | TGI (KM12 colon): > 10 µM | TGI (CCRF-CEM leukemia): > 10 µM | TGI (IGROV1 ovarian): > 10 µM | TGI (M14 melanoma): > 10 µM | TGI (786-0 renal): > 10 µM | TGI (MDA-MB-435): > 10 µM | TGI (K-562 leukemia): > 10 µM

C/C(=C/C(=O)Nn1c(Cc2ccccc2)n[nH]c1=O)C(=O)O
TGI (SNB-75 CNS): > 100 µM | TGI (KM12 colon): > 100 µM | TGI (CCRF-CEM leukemia): > 100 µM | TGI (IGROV1 ovarian): > 100 µM | TGI (M14 melanoma): > 100 µM | TGI (786-0 renal): > 100 µM | TGI (MDA-MB-435): > 100 µM | TGI (RXF 393 renal): > 100 µM | TGI (K-562 leukemia): > 100 µM

N=c1c2c(-c3ccccc3)c[nH]c2ncn1N
TGI (SNB-75 CNS): > 100 µM | TGI (KM12 colon): > 100 µM | TGI (CCRF-CEM leukemia): > 100 µM | TGI (IGROV1 ovarian): > 100 µM | TGI (A498 renal): > 100 µM | TGI (M14 melanoma): > 100 µM | TGI (786-0 renal): > 100 µM | TGI (MDA-MB-435): > 100 µM | TGI (K-562 leukemia): > 100 µM

CCSc1cc(=O)n(C)c(=O)n1C
TGI (SNB-75 CNS): > 100 µM | TGI (KM12 colon): > 100 µM | TGI (CCRF-CEM leukemia): > 100 µM | TGI (A498 renal): > 100 µM | TGI (M14 melanoma): > 100 µM | TGI (786-0 renal): > 100 µM | TGI (MDA-MB-435): > 100 µM | TGI (RXF 393 renal): > 100 µM

Nc1nc(N)c2ncn(Cc3ccccc3CCl)c2n1
TGI (SNB-75 CNS): > 100 µM | TGI (KM12 colon): > 100 µM | TGI (CCRF-CEM leukemia): > 100 µM | TGI (IGROV1 ovarian): > 100 µM | TGI (A498 renal): > 100 µM | TGI (M14 melanoma): > 100 µM | TGI (786-0 renal): > 100 µM | TGI (MDA-MB-435): > 100 µM | TGI (K-562 leukemia): > 100 µM

CN(C)c1ccc(C(Cc2ccc3ccccc3n2)Cc2ccc3ccccc3n2)cc1
GI50 (SNB-75 CNS): 3.24 µM | TGI (SNB-75 CNS): > 100 µM | GI50 (IGROV1 ovarian): 2.57 µM | TGI (IGROV1 ovarian): > 100 µM | GI50 (RXF 393 renal): 3.48 µM | TGI (RXF 393 renal): 9.11 µM

Fc1ccc2nc3n(c2c1)C(c1c(Cl)cccc1Cl)SC3 (centres undefined)
TGI (SNB-75 CNS): > 100 µM | TGI (KM12 colon): > 100 µM | TGI (IGROV1 ovarian): > 100 µM | TGI (A498 renal): > 100 µM | TGI (M14 melanoma): > 100 µM | TGI (786-0 renal): > 100 µM | TGI (MDA-MB-435): > 100 µM | TGI (RXF 393 renal): > 100 µM

O=C1CCC(=O)N1n1c(Cc2ccc(Cl)cc2)n[nH]c1=O
TGI (KM12 colon): > 100 µM | TGI (IGROV1 ovarian): > 100 µM | TGI (A498 renal): > 100 µM | TGI (M14 melanoma): > 100 µM | TGI (786-0 renal): > 100 µM | TGI (MDA-MB-435): > 100 µM | TGI (K-562 leukemia): > 100 µM

N#CCCN(CCC#N)c1ccc(/C=C2\N=C(c3ccccc3)N(NC(N)=S)C2=O)cc1
TGI (KM12 colon): > 100 µM | TGI (CCRF-CEM leukemia): > 100 µM | TGI (IGROV1 ovarian): > 100 µM | TGI (A498 renal): > 100 µM | TGI (M14 melanoma): > 100 µM | TGI (786-0 renal): > 100 µM | TGI (MDA-MB-435): > 100 µM | TGI (RXF 393 renal): > 100 µM | TGI (K-562 leukemia): > 100 µM

COC1(OC)CC(CO)(CNc2cc(Cl)nc(N)n2)C1
TGI (KM12 colon): > 100 µM | TGI (CCRF-CEM leukemia): > 100 µM | TGI (IGROV1 ovarian): > 100 µM | TGI (786-0 renal): > 100 µM | TGI (MDA-MB-435): > 100 µM | TGI (RXF 393 renal): > 100 µM | TGI (K-562 leukemia): > 100 µM
